Data as given in US20240043531A1, “ANTI-CD47 MONOCLONAL ANTIBODY AND USE THEREOF” (Akeso Biopharma, Inc., priority 2021, published 2024).

Tests used:
[1] = tested on: Raji cells; test: ADCP: phagocytosis of Raji cells by HPMMs, combination with obinutuzumab; assay type: cell-based, human; conditions: HPMMs effector, Raji target cells, 37° C. 2 h; FIG. 8
Experimental: PBMCs (prepared by Akeso Biopharma, Inc., Lot No: 20201126-G) were thawed and incubated with 1640 complete medium+10% FBS (Excell bio, Cat. No: FSP500, Lot No: 11I025) overnight. The next day, the medium was changed to 1640 complete medium+2% FBS, and the cells were incubated with the medium for 2 h. The supernatant was removed, and the cells were washed twice with PBS and incubated in an incubator (90% 1640+10% FBS+M-CSF-100 ng/mL) to induce […] (HPMMs). The medium was exchanged and the treatment was given on days 3 and 5. The experiment was performed on day 7 of induction.
Raji cells (purchased from ATCC) were conventionally collected and washed once with PBS. CFSE was diluted to 2.5 μM with PBS. The cells were resuspended in a proper amount of the diluted CFSE to a staining density of 1×10^7 cells/mL and incubated in an incubator for 20 min. 6 mL of 1640 complete medium (containing 10% FBS) was added to stop staining. The cells were centrifuged at 170×g for 5 min, and the supernatant was discarded. 1 mL of 1640 complete medium was added, and the cells were incubated in an incubator for 10 min with the cell density adjusted to 3×10^6 cells/mL. […] 200 μL of 1% PBSA was added to each tube for resuspension, and the cells were transferred to a flow cytometry tube and detected.

[2] = tested on: human Burkitt's lymphoma Raji-PDL1 cells; test: Immune cell activation: PBMCs co-cultured with Raji-PDL1 cells, cytokine ELISA; assay type: cell-based; conditions: SEB-activated PBMCs + MMC-treated Raji-PDL1 cells, 3 days; FIG. 3
[3] = tested on: CT26-hCD47 cells (mouse colon cancer cells); test: CT26-hCD47 tumor model in BALB/c-hPD1/hSIRPα mice, tumor volume; assay type: in vivo; conditions: 6F7H1L1(hG4) 5 mg/kg, cadonilimab 0.5 mg/kg, intraperitoneally twice per week for 4 weeks, 7 doses; vs isotype control hIgG4; FIG. 9
From the text: (§1) In order to determine the tumor inhibitory activity in vivo of 6F7H1L1(hG4) antibody in combination with anti-PD-1/anti-CTLA-4 bispecific antibody cadonilimab, female BALB/c-hPD1I/hSIRPα mice aged 6.43-8.43 weeks (purchased from GemPharmatech Co., Ltd.) were grafted subcutaneously with CT26-hCD47 cells (mouse colon cancer cells, purchased from GemPharmatech Co., Ltd.). When the mean tumor volume reached 80-120 mm^3, the mice were randomized into 4 groups of 6 by tumor volume. The day of grouping was defined as D0, and dosing was started on the day of grouping D0. The regimen of the combination therapy group is as follows: the drugs were formulated separately and administered sequentially (no certain order or time interval was required, and one treatment should be given after the completed administration of the other). After the administration, the length and width of tumors in each group were measured, and the tumor volume was calculated. The data were subjected to an independent sample T-test, SPSS 17.0 *P<0.05, **P<0.01.

[4] = CT26-hCD47 tumor model, tolerability and body weight; assay type: in vivo; conditions: 6F7H1L1(hG4) 5 mg/kg, cadonilimab 0.5 mg/kg, i.p.; FIG. 10
From the text: as §1

[5] = tested on: acute myelocytic leukemia (AML) HL-60 cells; test: ADCP: phagocytosis of HL-60 cells by HPMMs, combination with azacitidine; assay type: cell-based, human; conditions: HPMMs effector, HL-60 target cells treated with azacitidine 3 μM or 1 μM for 24 h; antibodies 10 μg/mL and 1 μg/mL; FIG. 2
From the text: Materials: Azacitidine (purchased from Baxter Oncology GmbH); Hu5F9-G4 (supplied by Akeso Biopharma, Inc.); Raji cells (Chinese Academy of Sciences Shanghai Branch); HL-60 cells (ATCC); RPMI 1640 (Gibco, Cat. No: 22400-105); pancreatin (0.25% Typsin-EDTA (1×)) (Gibco, Cat. No: 25200072); fetal bovine serum (FBS; Excell bio, Cat. No: FSP500); fluorescent dye […] diacetatesuccinimidyl ester (CFSE; Biolegend, Cat. No: 423801); recombinant human macrophage colony-stimulating factor (human M-CSF; PeproTech, Cat. No: 300-25); APC anti-human CD11c antibody (Biolegend, Cat. No: 301614); isotype control (human IgG4; supplied by Akeso Biopharma, Inc.); rituximab (Roche); BSA (Sigma, Cat. No: V900933-1KG); Ficoll paque plus (GE, Cat. No: 17-1440-02). Human peripheral monocyte-derived macrophages (HPMMs) were prepared by inducing PBMCs. Frozen PBMCs were conventionally thawed and incubated in an incubator overnight. […]
Procedures: HL-60 cells were conventionally collected and plated in a 6-well plate at 4×10^5 cells/2 mL of 1640 complete medium per well. […] The next day, the treated and blank HL-60 cells were collected, centrifuged at 170×g for 5 min, resuspended and counted. Then the cells were analyzed for viability and washed once with PBS. […]

[6] = tested on: hematological malignancies and solid tumors; conditions: Chao M P et al., 2016; cited from earlier work

obinutuzumab: anti-human CD20 antibody [reference compound]
phagocytic index (ADCP) [1]: significantly higher than those of the blank control and the isotype controls (human IgG4 and human IgG1)

cadonilimab: anti-PD-1/CTLA-4 bispecific antibody; heavy chain SEQ ID NO: 78, light chain SEQ ID NO: 80 [reference compound]
secretion of IFN-γ in PBMCs [2]: can significantly stimulate the secretion of IFN-γ | inhibition of tumor growth (tumor volume) [3]: can effectively inhibit the growth of tumors in mice | tolerability in tumor-bearing mice [4]: well tolerated

Hu5F9-G4: anti-CD47 monoclonal antibody drug, positive control; heavy chain SEQ ID NO: 85, light chain SEQ ID NO: 86
phagocytic index (ADCP) [5]: significantly higher than those of the blank control and the isotype control (human IgG4) | inhibition of growth and metastasis of tumors in preclinical studies [6]: effectively inhibits the growth and metastasis of hematological malignancies and solid tumors
